Source: the supplement of paper PMC10307832

What was measured:
Test in all cases: relative viability (nuclei count vs DMSO), 5 days (fraction); higher = more cells survive
LU99A = system: LU99A
Outline: (§1)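 Relative viability was taken as the ratio of nuclei in treated wells to nuclei in vehicle wells. Lung cancer cell lines in 1536-well plates received compounds by pin tool one day after seeding, either one drug alone or a fixed anchor-drug dose plus five library-drug doses (not always all listed) in √10 steps. Nuclei were counted on 4× images after 5 days of treatment, and values are medians of duplicate plates.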

COR-L23 = system: COR-L23
Outline: as §1

NCI-H441 = system: NCI-H441
Outline: as §1

NCI-H1563 = system: NCI-H1563
Outline: as §1

NCI-H838 = system: NCI-H838
Outline: as §1

BEN = system: BEN
Outline: as §1

NCI-H1651 = system: NCI-H1651
Outline: as §1

LOU-NH91 = system: LOU-NH91
Outline: as §1

NCI-H1437 = system: NCI-H1437
Outline: as §1

NCI-H1793 = system: NCI-H1793
Outline: as §1

NCI-H2085 = system: NCI-H2085
Outline: as §1

SK-LU-1 = system: SK-LU-1
Outline: as §1

NCI-H2023 = system: NCI-H2023
Outline: as §1

CAL-12T = system: CAL-12T
Outline: as §1

NCI-H1650 = system: NCI-H1650
Outline: as §1

NCI-H1355 = system: NCI-H1355
Outline: as §1

NCI-H1975 = system: NCI-H1975
Outline: as §1

NCI-H2342 = system: NCI-H2342
Outline: as §1

NCI-H460 = system: NCI-H460
Outline: as §1

NCI-H1734 = system: NCI-H1734
Outline: as §1

NCI-H358 = system: NCI-H358
Outline: as §1

Q: For `COc1nc(C)cnc1NS(=O)(=O)c1cccnc1-c1ccc(-c2nnco2)cc1` [Zibotentan] + CCNC(=O)c1noc(-c2cc(C(C)C)c(O)cc2O)c1-c1ccc(CN2CCOCC2)cc1 [Luminespib] (partner 0.01 µM), which relative viability (LU99A; first compound 0.08 µM) is on record?
A: 0.275

Q: And the relative viability (LU99A; first compound 0.253 µM)?
A: 0.242

Q: What about the relative viability (LU99A; first compound 0.8 µM) of the same compound?
A: 0.245

Q: And the relative viability (LU99A; first compound 2.53 µM)?
A: 0.243

Q: And the relative viability (COR-L23; first compound 0.08 µM)?
A: 0.879

Q: And the relative viability (COR-L23; first compound 0.253 µM)?
A: 0.656

Q: And the relative viability (COR-L23; first compound 0.8 µM)?
A: 0.719

Q: What about the relative viability (COR-L23; first compound 2.53 µM) of the same compound?
A: 0.667

Q: What about the relative viability (NCI-H441; first compound 0.08 µM) of the same compound?
A: 0.41

Q: And the relative viability (NCI-H441; first compound 0.253 µM)?
A: 0.255

Q: What about the relative viability (NCI-H441; first compound 0.8 µM) of the same compound?
A: 0.345

Q: What about the relative viability (NCI-H441; first compound 2.53 µM) of the same compound?
A: 0.368

Q: And the relative viability (NCI-H1563; first compound 0.08 µM)?
A: 0.474

Q: And the relative viability (NCI-H1563; first compound 0.253 µM)?
A: 0.499

Q: And the relative viability (NCI-H1563; first compound 0.8 µM)?
A: 0.552

Q: What about the relative viability (NCI-H1563; first compound 2.53 µM) of the same compound?
A: 0.559

Q: And the relative viability (NCI-H838; first compound 0.08 µM)?
A: 0.21

Q: And the relative viability (NCI-H838; first compound 0.253 µM)?
A: 0.212

Q: And the relative viability (NCI-H838; first compound 0.8 µM)?
A: 0.314

Q: What about the relative viability (NCI-H838; first compound 2.53 µM) of the same compound?
A: 0.313

Q: What about the relative viability (BEN; first compound 0.08 µM) of the same compound?
A: 0.401

Q: And the relative viability (BEN; first compound 0.253 µM)?
A: 0.356

Q: And the relative viability (BEN; first compound 0.8 µM)?
A: 0.395

Q: And the relative viability (BEN; first compound 2.53 µM)?
A: 0.537

Q: And the relative viability (NCI-H1651; first compound 0.08 µM)?
A: 0.802

Q: And the relative viability (NCI-H1651; first compound 0.253 µM)?
A: 0.484

Q: What about the relative viability (NCI-H1651; first compound 0.8 µM) of the same compound?
A: 0.958

Q: What about the relative viability (NCI-H1651; first compound 2.53 µM) of the same compound?
A: 0.796

Q: What about the relative viability (LOU-NH91; first compound 0.08 µM) of the same compound?
A: 0.33

Q: What about the relative viability (LOU-NH91; first compound 0.253 µM) of the same compound?
A: 0.315

Q: What about the relative viability (LOU-NH91; first compound 0.8 µM) of the same compound?
A: 0.382

Q: What about the relative viability (LOU-NH91; first compound 2.53 µM) of the same compound?
A: 0.364

Q: And the relative viability (NCI-H1437; first compound 0.08 µM)?
A: 1.15

Q: What about the relative viability (NCI-H1437; first compound 0.253 µM) of the same compound?
A: 0.967

Q: And the relative viability (NCI-H1437; first compound 0.8 µM)?
A: 1.12

Q: And the relative viability (NCI-H1437; first compound 2.53 µM)?
A: 1.15

Q: And the relative viability (NCI-H1793; first compound 0.08 µM)?
A: 0.172

Q: And the relative viability (NCI-H1793; first compound 0.253 µM)?
A: 0.169

Q: What about the relative viability (NCI-H1793; first compound 0.8 µM) of the same compound?
A: 0.225

Q: What about the relative viability (NCI-H1793; first compound 2.53 µM) of the same compound?
A: 0.169

Q: What about the relative viability (NCI-H2085; first compound 0.08 µM) of the same compound?
A: 0.386

Q: What about the relative viability (NCI-H2085; first compound 0.253 µM) of the same compound?
A: 0.423

Q: What about the relative viability (NCI-H2085; first compound 0.8 µM) of the same compound?
A: 0.42

Q: What about the relative viability (NCI-H2085; first compound 2.53 µM) of the same compound?
A: 0.463

Q: And the relative viability (SK-LU-1; first compound 0.08 µM)?
A: 0.236

Q: And the relative viability (SK-LU-1; first compound 0.253 µM)?
A: 0.171

Q: And the relative viability (SK-LU-1; first compound 0.8 µM)?
A: 0.213

Q: And the relative viability (SK-LU-1; first compound 2.53 µM)?
A: 0.194

Q: And the relative viability (NCI-H2023; first compound 0.08 µM)?
A: 0.856

Q: And the relative viability (NCI-H2023; first compound 0.253 µM)?
A: 0.455

Q: And the relative viability (NCI-H2023; first compound 0.8 µM)?
A: 0.645

Q: What about the relative viability (NCI-H2023; first compound 2.53 µM) of the same compound?
A: 0.799

Q: And the relative viability (CAL-12T; first compound 0.08 µM)?
A: 0.598

Q: What about the relative viability (CAL-12T; first compound 0.253 µM) of the same compound?
A: 0.123

Q: And the relative viability (CAL-12T; first compound 0.8 µM)?
A: 0.415

Q: What about the relative viability (CAL-12T; first compound 2.53 µM) of the same compound?
A: 0.418

Q: What about the relative viability (NCI-H1650; first compound 0.08 µM) of the same compound?
A: 0.177

Q: What about the relative viability (NCI-H1650; first compound 0.8 µM) of the same compound?
A: 0.204

Q: What about the relative viability (NCI-H1650; first compound 2.53 µM) of the same compound?
A: 0.195

Q: What about the relative viability (NCI-H1355; first compound 0.08 µM) of the same compound?
A: 0.738

Q: What about the relative viability (NCI-H1355; first compound 0.253 µM) of the same compound?
A: 0.719

Q: What about the relative viability (NCI-H1355; first compound 0.8 µM) of the same compound?
A: 0.773

Q: And the relative viability (NCI-H1355; first compound 2.53 µM)?
A: 0.75

Q: And the relative viability (NCI-H1975; first compound 0.08 µM)?
A: 0.305

Q: And the relative viability (NCI-H1975; first compound 0.253 µM)?
A: 0.0756

Q: And the relative viability (NCI-H1975; first compound 0.8 µM)?
A: 0.198

Q: What about the relative viability (NCI-H1975; first compound 2.53 µM) of the same compound?
A: 0.218

Q: What about the relative viability (NCI-H2342; first compound 0.08 µM) of the same compound?
A: 0.702

Q: And the relative viability (NCI-H2342; first compound 0.253 µM)?
A: 0.617

Q: And the relative viability (NCI-H2342; first compound 0.8 µM)?
A: 0.652

Q: What about the relative viability (NCI-H2342; first compound 2.53 µM) of the same compound?
A: 0.738

Q: What about the relative viability (NCI-H460; first compound 0.08 µM) of the same compound?
A: 0.036

Q: What about the relative viability (NCI-H460; first compound 0.253 µM) of the same compound?
A: 0.0258

Q: What about the relative viability (NCI-H460; first compound 0.8 µM) of the same compound?
A: 0.0276

Q: What about the relative viability (NCI-H460; first compound 2.53 µM) of the same compound?
A: 0.0332

Q: And the relative viability (NCI-H1734; first compound 0.08 µM)?
A: 0.19

Q: What about the relative viability (NCI-H1734; first compound 0.253 µM) of the same compound?
A: 0.164

Q: What about the relative viability (NCI-H1734; first compound 0.8 µM) of the same compound?
A: 0.195

Q: And the relative viability (NCI-H1734; first compound 2.53 µM)?
A: 0.262

Q: And the relative viability (NCI-H358; first compound 0.08 µM)?
A: 0.302

Q: And the relative viability (NCI-H358; first compound 0.8 µM)?
A: 0.435

Q: And the relative viability (NCI-H358; first compound 2.53 µM)?
A: 0.555
